For the first assay, the target named is T1, OX1 (Homo sapiens, UniProt O43613).
T1 construct: expressed in transfected cells; host or cells: CHO (CHO-OX1, kept under selection antibiotic)
T1 sequence (O43613 1-425): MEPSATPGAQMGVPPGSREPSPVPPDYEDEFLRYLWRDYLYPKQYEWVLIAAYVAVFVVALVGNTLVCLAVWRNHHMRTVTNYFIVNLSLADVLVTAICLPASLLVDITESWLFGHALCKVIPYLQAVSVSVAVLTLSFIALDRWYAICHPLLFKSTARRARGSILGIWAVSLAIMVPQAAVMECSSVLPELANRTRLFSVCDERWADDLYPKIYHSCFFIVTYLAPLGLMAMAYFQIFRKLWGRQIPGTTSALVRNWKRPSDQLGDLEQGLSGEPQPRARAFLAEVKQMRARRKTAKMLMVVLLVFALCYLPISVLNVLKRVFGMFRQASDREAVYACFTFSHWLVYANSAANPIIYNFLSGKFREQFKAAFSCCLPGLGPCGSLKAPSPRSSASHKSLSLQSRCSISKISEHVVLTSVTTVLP
Briefly: Orexin receptor cell-based functional assay, [Ca2+]i by FLIPR, CHO-OX1 cells. The settings on record: CHO-OX1 cells, [Ca2+]i by FLIPR, antagonist dose-range 0.1 nM-10 μM, EC90 of OXA; read-out: OX1. On the procedure:
Measurement of [Ca^2+]i using a FLIPR: CHO—OX1 or CHO—OX2 cells are seeded into black-walled clear-base 384-well plates (Costar) at a density of 20,000 cells per well in F12-K medium supplemented with 10% FBS and selection antibiotic (500 ug/ml G418 or 15 ug/ml Blasticidin) and cultured overnight. The cells are incubated with equal volume of calcium4 loading buffer (Molecular Devices, Inc.) containing 2.5 mM probenecid at 37° C. for 30 min, followed by putative OX1 or OX2 receptor antagonists (dose-range 0.1 nM-10 μM) for another 30 min.
The cells are incubated with equal volume of calcium6 loading buffer (Molecular Devices, Inc.) containing 2.5 mM probenecid at 37° C. for 2 h, followed by test compounds (dose-range 0.1 nM-10 μM) for another 30 min.
With `Cc1nc(C(=O)N2CCC[C@H](C)[C@H]2CNc2ccc(C(F)(F)F)cn2)c(-c2ccc(F)cc2)s1` (racemic) [Example A65, rac-trans-(5-(4-Fluorophenyl)-2-methylthiazol-4-yl)(3-methyl-2-(((5-(trifluoromethyl)pyridin-2-yl)amino)methyl)piperidin-1-yl)methanone], the IC50 stood at 7 nM.

`Cc1ccc(-c2ccccn2)c(C(=O)N2CCC[C@@H](C)[C@H]2CNc2ccc(C(F)(F)F)cn2)n1` [Example A217, ((2S,3R)-3-Methyl-2-(((5-(trifluoromethyl)pyridin-2-yl)amino)methyl)piperidin-1-yl)(6′-methyl-[2,3′-bipyridin]-2′-yl)methanone]: the IC50 was 150 nM.

For the compound `Cc1c(F)ccc(-n2nccn2)c1C(=O)N1CCC[C@@H](C)[C@H]1CNc1ccc(C(F)(F)F)cn1` [Example A384, (3-Fluoro-2-methyl-6-(2H-1,2,3-triazol-2-yl)phenyl)((2S,3R)-3-methyl-2-(((5-(trifluoromethyl)pyridin-2-yl)amino)methyl)piperidin-1-yl)methanone], the IC50 was found to be 19 nM.

In the case of `C[C@@H]1CCCN(C(=O)c2c(-n3nccn3)ccc(F)c2F)[C@@H]1CNc1ccc(C(F)(F)F)cn1` [Example A336, (2,3-Difluoro-6-(2H-1,2,3-triazol-2-yl)phenyl)((2S,3R)-3-methyl-2-(((5-(trifluoromethyl)pyridin-2-yl)amino)m*ethyl)piperidin-1-yl)methanone], the IC50 stood at 10 nM.

Regarding `Cc1ccc(-c2cccnc2)c(C(=O)N2CCC[C@@H](C)[C@H]2CNc2ccc(Cl)cn2)n1` [Example A224], the IC50 was 13 nM.

The same assay, now with this note: Table 2; CHO-OX1 cells, EC90 of OXA; read-out: IC50 Bioactivity OX1.
On to `Cc1nc(C(=O)N2CCC[C@@H](C)[C@H]2CNc2ncc(Cl)cn2)c(-c2ccc(F)cc2)s1` (racemic) [Example 82, rac-cis-(2-(((5-Chloropyrimidin-2-yl)amino)methyl)-3-methylpiperidin-1-yl)(5-(4-fluorophenyl)-2-methylthiazol-4-yl)methanone], for which the IC50 came to 4 nM.

As to `Cc1nc(C(=O)N2CCC[C@@H](C)[C@H]2CNc2cccc(C(F)(F)F)n2)c(-c2ccc(F)cc2)s1` (racemic) [Example 87, rac-cis-(3-Methyl-2-(((6-(trifluoromethyl)pyridin-2-yl)amino)methyl)piperidin-1-yl) (5-(4-fluorophenyl)-2-methylthiazol-4-yl)methanone], the IC50 is 220 nM.

In the case of `Cc1nc(C(=O)N2CCC[C@@H](C)[C@H]2CNc2ccc(C(F)(F)F)cn2)c(-c2ccccc2)s1` (racemic) [Example 73, rac-cis-(3-Methyl-2-(((5-(trifluoromethyl)pyridin-2-yl)amino)methyl)piperidin-1-yl)(2-methyl-5-phenylthiazol-4-yl)methanone], the IC50 was below 10 nM.

`CCNC1CCC(CNC(=O)c2cccc3cccnc23)N(C(=O)c2sc(C)nc2-c2ccccc2)C1` (racemic) [Example 46, N-((5-(Ethylamino)-1-(2-methyl-4-phenylthiazole-5-carbonyl)piperidin-2-yl)methyl)quinoline-8-carboxamide]: the IC50 is below 10000 nM.

Consider `O=C(NCC1CCC(F)CN1C(=O)c1ccccc1-c1ccccc1)c1cccc2cccnc12` (single isomer, unassigned) [Example 38, N-((1-(Biphenylcarbonyl)-5-fluoropiperidin-2-yl)methyl)quinoline-8-carboxamide], for which the IC50 was found to be 4 nM.

As for `O=C(NC[C@@H]1[C@H]2CCCC[C@H]2CN1C(=O)c1ccccc1-c1ccccc1)c1cccc2cccnc12` (racemic) [Example 66, N-(((1S,3aR,7aS)-2-(Biphenylcarbonyl)octahydro-1H-isoindol-1-yl)methyl)quinoline-8-carboxamide], the IC50 was 350 nM.

Consider `Cc1ccc(-c2cnc(N3CCN(C)CC3)nc2)c(C(=O)N2CCC[C@@H](C)[C@H]2CNc2ccc(C(F)(F)F)cn2)c1` (racemic) [Example 109, rac-cis-(3-Methyl-2-(((5-(trifluoromethyl)pyridin-2-yl)amino)methyl)piperidin-1-yl)(5-methyl-2-(2-(4-methylpiperazin-1-yl)pyrimidin-5-yl)phenyl)methanone], for which the IC50 was above 1000 nM.

For the compound `Cc1ccc(-c2cncnc2)c(C(=O)N2CCC[C@@H](C)[C@H]2CNc2ccc(C(F)(F)F)cn2)c1` (racemic) [Example 107, rac-cis-(3-Methyl-2-(((5-(trifluoromethyl)pyridin-2-yl)amino)methyl)piperidin-1-yl) (5-methyl-2-(pyrimidin-5-yl)phenyl)methanone], the IC50 was found to be 78 nM.

With `CN(C)C1CCC(CNC(=O)c2cccc3cccnc23)N(C(=O)c2ccccc2-c2ccccc2)C1` (racemic) [Example 41, N-((1-(Biphenylcarbonyl)-5-(dimethylamino)piperidin-2-yl)methyl)quinoline-8-carboxamide], the IC50 was 1500 nM.

In the case of `NC1CCC(CNC(=O)c2cccc3cccnc23)N(C(=O)c2ccccc2-c2ccccc2)C1` (racemic) [Example 39, N-((5-Amino-1-(biphenylcarbonyl)piperidin-2-yl)methyl)quinoline-8-carboxamide], the IC50 came to 30 nM.

In the case of `Cc1nc(C(=O)N2CCC[C@@H](C)[C@H]2CNc2ccc(C#N)cn2)c(-c2ccc(F)cc2)s1` (racemic) [Example 91, rac-cis-6-(((1-(5-(4-Fluorophenyl)-2-methylthiazole-4-carbonyl)-3-methylpiperidin-2-yl)methyl)amino)nicotinonitrile], the IC50 stood at 140 nM.

As for `Cc1nc(C(=O)N2CC(F)(F)CCC2CNC(=O)c2cccc3cccnc23)c(-c2cccc(F)c2)s1` (racemic) [Example 52, rac-N-((5,5-Difluoro-1-(5-(3-fluorophenyl)-2-methylthiazole-4-carbonyl)piperidin-2-yl)methyl)quinoline-8-carboxamide], the IC50 stood at 1 nM.

On to `Cc1nc(C(=O)N2CCC[C@@H](C)[C@H]2COc2nc3ccccc3o2)c(-c2ccc(F)cc2)s1` (racemic) [Example 80, rac-cis-(2-((Benzo[d]oxazol-2-yloxy)methyl)-3-methylpiperidin-1-yl)(5-(4-fluorophenyl)-2-methylthiazol-4-yl)methanone], for which the IC50 came to 140 nM.

On to `O=C(NC[C@@H]1C[C@@H](F)CN1C(=O)c1ccccc1-c1ccccc1)c1cccc2cccnc12` [Example 128, N-(((2S,4R)-1-(Biphenylcarbonyl)-4-fluoropyrrolidin-2-yl)methyl)quinoline-8-carboxamide], for which the IC50 came out at 35 nM.

For the compound `Cc1nc(C(=O)N2CCC[C@@H](C)[C@H]2CNc2nc3ccccc3s2)c(-c2ccc(F)cc2)s1` (racemic) [Example 72, rac-cis-(2-((Benzo[d]thiazol-2-ylamino)methyl)-3-methylpiperidin-1-yl)(5-(4-fluorophenyl)-2-methylthiazol-4-yl)methanone], the IC50 amounted to 6 nM.

As to `CC(=O)O[C@H]1C[C@@H](CNC(=O)c2cccc3cccnc23)N(C(=O)c2ccccc2-c2ccccc2)C1` [Example 131, (3S,5S)-1-([1,1′-Biphenyl]-2-carbonyl)-5-((quinoline-8-carboxamido)methyl)pyrrolidin-3-yl acetate], the IC50 came to 53 nM.

`Cc1ccc(-n2ccnn2)c(C(=O)N2CCC[C@@H](C)[C@H]2CNc2ccc(C(F)(F)F)cn2)c1` (racemic) [Example 115, rac-cis-(3-Methyl-2-(((5-(trifluoromethyl)pyridin-2-yl)amino)methyl)piperidin-1-yl)(5-methyl-2-(1H-1,2,3-triazol-1-yl)phenyl)methanone]: the IC50 is 10 nM.

Turning to `COc1ccnc(NC[C@@H]2[C@H](C)CCCN2C(=O)c2nc(C)sc2-c2ccc(F)cc2)n1` (racemic) [Example 17, rac-cis-(5-(4-Fluorophenyl)-2-methylthiazol-4-yl)(2-(((4-methoxypyrimidin-2-yl)amino)methyl)-3-methylpiperidin-1-yl)methanone], the IC50 was found to be 52 nM.

For `CO[C@@H]1CCCN(C(=O)c2nc(C)sc2-c2ccc(F)cc2)[C@@H]1CNc1ncc(Cl)cn1` (racemic) [Example 93, rac-cis-(2-(((5-Chloropyrimidin-2-yl)amino)methyl)-3-methoxypiperidin-1-yl)(5-(4-fluorophenyl)-2-methylthiazol-4-yl)methanone], the IC50 stood at 100 nM.

`CNC1CCC(CNC(=O)c2cccc3cccnc23)N(C(=O)c2ccccc2-c2ccccc2)C1` (racemic) [Example 49, N-((1-(Biphenylcarbonyl)-5-(methylamino)piperidin-2-yl)methyl)quinoline-8-carboxamide]: the IC50 stood at 25 nM.

Regarding `Cc1nc(-c2ccccc2)c(C(=O)N2CC(NC(C)C)CCC2CNC(=O)c2cccc3cccnc23)s1` (racemic) [Example 48, N-((5-(Isopropylamino)-1-(2-methyl-4-phenylthiazole-5-carbonyl)piperidin-2-yl)methyl)quinoline-8-carboxamide], the IC50 is below 10000 nM.

For the origin of these results see patent US9440982B2 (Eolas Therapeutics, Inc., priority 2012, dated 2016).
